Here are results for four compounds from US20240252500A1, “Treatment of chronic pruritic dermatoses” (CymaBay Therapeutics, Inc., priority 2023, published 2024).

Data set [1] relates to IL-31. As to conditions: NASH patients; cited from earlier work.
In data set [2] the test system is atopic dermatitis-associated pruritus. As to the kind of experiment: Oral treatment of pruritic atopic dermatitis. The format is in vivo, human. The protocol:
(§1) Subjects are permitted their usual other medications. […] At each visit, the subjects are assessed for their disease symptoms and biomarkers, and assessed for pruritus. The subjects also maintain health diaries, which are reviewed at each visit.
Adult subjects with pruritic atopic dermatitis are treated orally with doses of 5, 10, 25, 50, and 100 mg/day of mavodelpar. Subjects are permitted their usual other medications. The subjects are assessed before the study, and at intervals during the study, such as every 4 weeks during the study and 4 weeks after the last dose of the mavodelpar therapy, for safety and pharmacodynamic evaluations. At each visit, the subjects are assessed for their disease symptoms and biomarkers, and assessed for atopic dermatitis-associated pruritus. The subjects also maintain health diaries, which are reviewed at each visit.

For data set [3] the test system is unchanged. As to the kind of experiment: Topical ointment treatment of pruritic atopic dermatitis. It counts as in vivo, human. The protocol: as §1
Adult subjects with pruritic atopic dermatitis are treated topically with an ointment containing 1, 2, 5, or 10% of mavodelpar. Subjects are permitted their usual other medications. The subjects are assessed before the study, and at intervals during the study, such as every 4 weeks during the study and 4 weeks after the last dose of the mavodelpar therapy, for safety and pharmacodynamic evaluations. At each visit, the subjects are assessed for their disease symptoms and biomarkers, and assessed for pruritus. The subjects also maintain health diaries, which are reviewed at each visit.

In data set [4] the target is T1, peroxisome proliferator-activated receptor-α (Homo sapiens, UniProt Q07869).
T1 sequence (Q07869 1-468): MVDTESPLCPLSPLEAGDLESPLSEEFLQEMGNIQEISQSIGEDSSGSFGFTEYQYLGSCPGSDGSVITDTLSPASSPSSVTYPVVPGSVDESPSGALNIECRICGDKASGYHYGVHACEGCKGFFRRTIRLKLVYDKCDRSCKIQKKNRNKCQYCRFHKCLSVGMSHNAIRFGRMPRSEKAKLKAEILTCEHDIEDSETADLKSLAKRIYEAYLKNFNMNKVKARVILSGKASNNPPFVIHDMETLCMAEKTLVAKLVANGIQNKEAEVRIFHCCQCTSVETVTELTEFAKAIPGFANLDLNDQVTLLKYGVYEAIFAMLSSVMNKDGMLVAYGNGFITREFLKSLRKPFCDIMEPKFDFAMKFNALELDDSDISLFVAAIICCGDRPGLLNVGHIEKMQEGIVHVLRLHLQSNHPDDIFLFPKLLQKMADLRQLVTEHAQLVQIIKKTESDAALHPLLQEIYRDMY
The settings on record: Alzheimer's Drug Discovery Foundation Cognitive Vitality Report, November 2021; read-out: EC50 for PPARα; cited from earlier work.

Data set [5] has as its target T2, peroxisome proliferator-activated receptor-γ (Homo sapiens, UniProt P37231).
T2 sequence (P37231 1-505): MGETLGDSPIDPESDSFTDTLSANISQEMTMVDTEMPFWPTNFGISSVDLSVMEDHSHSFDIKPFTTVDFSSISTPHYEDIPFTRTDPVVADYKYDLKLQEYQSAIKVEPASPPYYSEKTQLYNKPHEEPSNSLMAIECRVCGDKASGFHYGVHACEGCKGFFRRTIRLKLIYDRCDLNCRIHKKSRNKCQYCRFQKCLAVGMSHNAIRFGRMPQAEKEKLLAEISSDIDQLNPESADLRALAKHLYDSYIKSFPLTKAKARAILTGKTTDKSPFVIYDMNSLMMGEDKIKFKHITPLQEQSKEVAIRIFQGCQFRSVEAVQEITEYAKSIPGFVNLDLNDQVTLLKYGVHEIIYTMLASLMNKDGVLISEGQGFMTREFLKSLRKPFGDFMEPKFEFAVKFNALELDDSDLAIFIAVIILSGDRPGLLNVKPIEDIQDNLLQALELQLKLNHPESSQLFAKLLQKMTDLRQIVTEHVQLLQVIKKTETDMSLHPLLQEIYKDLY
As to conditions: Alzheimer's Drug Discovery Foundation Cognitive Vitality Report, November 2021; read-out: EC50 for PPARγ; cited from earlier work.

For data set [6] the following is noted: animal models and humans; cited from earlier work.
For data set [7] the following is noted: several animal models of type 2 diabetes; cited from earlier work.
The conditions of data set [8]: early clinical studies; cited from earlier work.
Data set [9] has as its system human IL-31. As to the kind of experiment: Serum human IL-31 in PXB mice (humanized liver). It counts as in vivo, PXB mouse. As to conditions: 2 h after last dose, day 0 0.13 pg/mL. From the text: The PXB mouse (PhoenixBio Co., Ltd., Higashi-Hiroshima, Japan) is a chimeric mouse with a humanized liver, produced by transplanting human hepatocytes into the albumin enhancer/promoter-urokinase-type plasminogen activator complementary DNA transgenic/SCID mouse. The mouse has its liver repopulated by human hepatocytes at a ratio of more than 70%, typically 85-90%, as assessed by measuring the ratio of human albumin to mouse albumin in the blood. The transplanted human hepatocytes express a variety of human messenger RNA (mRNA) and proteins, in a similar manner to those of the normal human liver. […] The study was conducted at PhoenixBio. Male PXB mice aged about 25 weeks, kept in single animal cages and fed CRF1 mouse chow supplemented with AS primate chow for vitamin C supplementation (both from Oriental Yeast Co., Ltd., Tokyo, Japan), were randomized into groups (10/group) based on mean values for body weight and blood human albumin concentration. […] Two hours after the last dose, each mouse was anesthetized with isoflurane, at least 400 μL blood was collected by cardiac puncture, and the mouse sacrificed by exsanguination. The blood samples were left to coagulate at room temperature for at least 5 minutes, then centrifuged at 13200×g for 3 minutes at 4° C. to obtain serum, which was analyzed for human IL-31.

The conditions of data set [10]: PBC patients, 12 months, cited from earlier work.
Data set [11] deals with human IL-31. As to conditions: humanized liver murine model; cited from earlier work.
Data set [12] deals with T1, peroxisome proliferator-activated receptor-α. Put plainly: PPARα agonism / selectivity. It counts as biochemical.
Data set [13] relates to CD4 T cells. Put plainly: IL-31 production by CD4 T cells under Th2-promoting conditions. The format is cell-based, human. The settings on record: both donors, both promoters; p<0.0001, Mann-Whitney test. The protocol:
CD4 T cells were enriched from peripheral blood mononuclear cells collected from two normal healthy donors, using the EasySep™ Human CD4+ T Cell Isolation Kit ([…] Technologies). 100,000 CD4 T cells were seeded in a U-bottom 96-well-plate well, and cultured in Th2-promoting conditions promoted by IL-4 or IL-33. […] On day 5 of culture, the anti-CD3/CD28 beads were diluted by adding 150 μL TCM. From days 5 to 13, the cells were cultured in the presence of the same reagents as for days 1 to 4 plus 50 ng/mL IL-2; and the cell culture medium was renewed every 2-3 days by a change of 50% volume of the medium. On day 13 or day 14, the expanded T cells in an individual well were split to four to six wells of 96-well-plate wells; and 5 ng/mL phorbol myristate acetate and 500 ng/mL ionomycin were added for 3 days to re-activate the T cells. The IL-31 concentration in the culture medium of each well was determined using the V-PLEX Human IL-31 Kit (Meso Scale Diagnostics, LLC; Rockville, MD, USA).

Data set [14] concerns IL-31. As to the kind of experiment: Serum IL-31 in PBC subjects, phase 3 study (ENHANCE, NCT03602560). As to conditions: before treatment. The format is in vivo, human. From the text:
The trial subjects in this phase 3 study were adult, male or female, with a diagnosis of PBC. Exclusion criteria included AST or ALT≥3×ULN, total bilirubin (TBIL)≥2×ULN, autoimmune hepatitis or a history of chronic viral hepatitis, PSC, the current use of fibrates or simvastatin, the use of colchicine, methotrexate, azathioprine, or systemic steroids in the previous two months, the use of an experimental treatment for PBC, and the use of an experimental or unapproved immunosuppressant. […] Serum IL-31 and its correlation with patient-reported pruritus numerical rating scale (NRS, 0-10) were assessed.

A short description of data set [15]: Seladelpar oral studies in primary biliary cholangitis. It counts as in vivo, human.
Data set [16] can be described thus: Oral bioavailability of seladelpar. The settings on record: in vivo.

Where two headings read alike, the source gives them in different places. Bounds are passed on as bounds.

As to `O=C(O)c1ccnc(N2CC(O)(c3ccc(OCc4c(-c5c(Cl)cccc5Cl)noc4C4CC4)cc3Cl)C2)c1` [cilofexor], the “effect on IL-31” value in [1] is listed as “increased IL-31”.

Broadly, the EC50 is the concentration at which the effect is half-maximal. Take `Cc1cc(OC/C=C(/c2ccc(F)cc2)c2ccc(C#CCN3CCOCC3)cc2)ccc1OCC(=O)O` [mavodelpar, (4-{[(2E)-3-(4-fluorophenyl)-3-{4-[3-(morpholin-4-yl)prop-1-yn-1-yl]phenyl}prop-2-en-1-yl]oxy}-2-methylphenoxy)acetic acid]: the atopic dermatitis-associated pruritus entry in data set [2] (oral 5, 10, 25, 50 and 100 mg/day mavodelpar) was “improvement in their atopic dermatitis-associated pruritus”; in data set [3] (ointment containing 1, 2, 5 or 10% mavodelpar) it was “improvement in their atopic dermatitis-associated pruritus”. In addition, the EC50 in data set [4] and in data set [5] was more than 10 µM in each case. Moreover, the high-density lipoprotein cholesterol entry in data set [6] is on record as “significant increase in high-density lipoprotein cholesterol”. In data set [6], the “low-density lipoprotein cholesterol and triglycerides” value is “lowering of low-density lipoprotein cholesterol and triglycerides”. The anti-diabetic effect entry in [7] is reported as “anti-diabetic effect”. The tolerability entry in [8] was “well tolerated”.

Turning to `CC[C@H]1[C@@H](O)[C@@H]2[C@H](CC[C@]3(C)[C@@H]([C@H](C)CCC(=O)O)CC[C@@H]23)[C@@]2(C)CC[C@@H](O)C[C@@H]12` [obeticholic acid], in data set [9] (gavage 10 mL/kg of 1 mg/mL once/day for 19 days), the “serum human IL-31 concentration” value is given as 3.7 pg/mL. In addition, the “patients reporting severe pruritus” value is given as 23% in data set [10] (OCALIVA 10 mg arm) and 19% in [10] (OCALIVA titration arm). The “IL-31 mRNA expression in human hepatocytes” value in [11] is recorded as “increased”.

As to `CCO[C@H](COc1ccc(C(F)(F)F)cc1)CSc1ccc(OCC(=O)O)c(C)c1` [seladelpar, [4-({(2R)-2-ethoxy-3-[4-(trifluoromethyl)phenoxy]propyl}sulfanyl)-2-methylphenoxy]acetic acid], the “specificity for PPARδ compared with PPARα” value in data set [12] is reported as more than 600 fold. Moreover, in [13], the “IL-31 production vs DMSO control” value is on record as “reduced IL-31 production”. The “serum human IL-31 concentration” value in [9] (gavage 10 mL/kg of 10 mg/mL once/day for 19 days) amounted to 0.19 pg/mL. Also, the “mean serum IL-31, baseline” value is 3.8 pg/mL in data set [14] (5 mg/day oral as L-lysine dihydrate salt) and 4.2 pg/mL in data set [14] (10 mg/day oral as L-lysine dihydrate salt). In addition, the atopic dermatitis-associated pruritus result is recorded as “improvement in their atopic dermatitis-associated pruritus” in [2] (oral 5, 10, 25 and 50 mg/day seladelpar); “improvement in their atopic dermatitis-associated pruritus” in data set [3] (ointment containing 1, 2, 5 or 10% seladelpar). Besides, the “efficacy in PBC” value in [15] (oral 5, 10, 50 and 200 mg/day) is recorded as “effective in the treatment of PBC”. Further, in [15] (oral 5, 10, 50 and 200 mg/day in PBC), the “effect on cholestatic pruritus (exacerbation)” value is “not to exacerbate cholestatic pruritus”. Moreover, the “efficacy in cholestatic pruritus associated with PBC” value in data set [15] (oral 5 and 10 mg/day) is “effective in the treatment of cholestatic pruritus”. The oral bioavailability result in data set [16] is given as “high”.
